Assay results published in patent publication US11091428B2 (HAPLOGEN GMBH, priority 2016, dated 2021).

Tests used:
[1] = system: picornaviruses (CVB1, HRV-A2, HRV-A23, EV-68); test: Anti-picornavirus cytopathic effect (CPE) reduction assay on HeLa H1 cells; type: cell-based; settings: Enterovirus B, HeLa H1, 48 h, HeLa H1 cells, 48 h, category from averaging the EC50 values from four picornaviruses (CVB1, HRV-A2, HRV-A23, EV68); read-out: EC50 values of the compounds determined in the anti-picornavirus assay
Experimental: The antiviral activity of selected compounds was tested using a cytopathic effect (CPE) reduction assay on HeLa H1 cells (ATCC CRL-1958). Briefly, cells were seeded in 96-well dishes (2×10^4 cells/well) in DMEM medium (Life technologies) supplemented with 10% FBS and PenStrep solution (100 U/mL Penicillin and 100 μg/mL streptomycin) and incubated at 37° C., 5% CO2 ovemight. The next day, cells were pre-treated with serial dilutions of the compound in DMEM medium supplemented with 2% FBS and PenStrep for 2 h at 37° C., 5% CO2. Next, cells were infected with virus (CVB1, HRV-A2, HRV-A23, EV-68) at an multiplicity of infection (MOI) which results in a complete virus-induced CPE within 2 days in control wells (infected and vehicle-treated). After 48 h, supematants were aspirated and 50 μl/well of CellTiterBlue reagent (Promega) diluted 1:5 in DMEM+2% FBS, was added to the cells. Plates were returned to the incubator and allowed to develop for 1.5 h. After that, plates were equilibrated to RT and subsequently, fluorescence was recorded (Excitation wavelength: 560 nm; emission wavelength: 590 nm) using a SpectraMax M5 multimode plate reader. Viability of cells was calculated according to the formula: V=(RFUCpd−RFUVeh/(RFUM−RFUVeh), where RFUCpd refers to infected and compound-treated cells, RFUVeh to infected and vehicle-treated cells and RFUM to uninfected and vehicle treated cells. Half-maximal effective concentrations (EC50) were calculated by non-linear regression analysis using the drc package in R (R Development. Core Team, 2005). EC50 categories as presented in Table 2 were calculated by averaging the EC50 values from four picornaviruses (CVB1, HRV-A2, HRV-A23, EV68).

PLA2G16 = target: T1, PLA2G16 (Homo sapiens, UniProt P53816); test: Enzyme activity assay for PLA2G16 (Red/Green BODIPY PC-A2 fluorescence); type: biochemical; settings: His-tagged PLA2G16, 4 min pre-incubation, 2 nM to 50 μM; read-out: IC50 values of the compounds determined in the enzyme activity assay for PLA2G16
T1 construct: Hexa-His (N); made in house; host or cells: E. coli BL21(DE3)
T1 sequence (P53816 1-162): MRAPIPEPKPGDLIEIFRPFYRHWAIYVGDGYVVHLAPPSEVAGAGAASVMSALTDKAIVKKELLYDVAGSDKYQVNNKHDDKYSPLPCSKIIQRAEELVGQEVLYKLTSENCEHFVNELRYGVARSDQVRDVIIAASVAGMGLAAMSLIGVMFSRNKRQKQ
Source text: A cDNA for PLA2G16(NM_007069) was custom-synthesized by Genscript (Piscataway, USA) and inserted into a pET-based bacterial expression vector [Moffatt, B. A. and Studier, F. W. (1986) J. Mol. Biol. 189, 113-130; Rosenberg, A. H., Lade, B. N., Chui, D., Lin, S., Dunn, J. J., and Studier, F. W. (1987) Gene 56, 125-135], enabling the expression of N-terminally Hexa-His-tagged PLA2G16. E. coli BL21(DE3) (Agilent) were transformed with pET-His-PLA2G16according to the manufacturer's instructions and plated on Carbenicillin-containing agar plates (final concentration: 100 μg/mL). A single clone was in occulated in 100 mL LB medium supplemented with 100 μg/mL Carbenicillin and the in occulated culture was grown at 37° C. overnight in a rotary shaker. On the next day, the bacterial culture was diluted in LB medium supplemented with 100 μg/mL Carbenicillin (30 mL overnight culture in 800 mL total culture volume). Bacteria were grown at 37° C. until the OD600 reached 0.6. Gene expression was induced by addition of 1 mM isopropyl-β-D-thiogalactopyranosid (IPTG) for 2 h at 18° C. Subsequently, bacteria were harvested by centrifugation (15 min; 10,000×g; 4° C.) and frozen at −80° C. The bacterial pellet was resuspended in Buffer A (50 mM Tris/HCl pH 7.5, 500 mM NaCl, 5% glycerol, 5 mM β-Mercaptoethanol and 1 mM PMSF) and lysed by addition of 1 mg/mL lysozyme (Sigma Aldrich) and 100 μg/mL DNasel-(Roche). The sample was incubated at 30° C. for 30 min to allow lysis to occur. Then, the lysate was cleared by centrifugation (15,000×g, 15 min, 4° C.) and incubated with 1.5 mL Ni-NTA agarose suspension (Qiagen) for 60 min at 4° C. The Ni-NTA agarose was washed with 10 mL Buffer A. Bound protein was eluted by applying a manual gradient of Buffer A supplemented with increasing concentrations of imidazole (Sigma Aldrich; 25/50/75/100/250 mM). Purified fractions were analyzed by SDS-PAGE followed by Coomassie staining to assess the purity.
Activity of the protein was assessed as follows: Red/Green BODIPY® PC-A2 (Invitrogen, 1 mM in DMSO) was mixed with equal volumes of 1,2-Dioleoyl-sn-glycero-3-phosphocholine (DOPC; Sigma Aldrich, 10 mM in Ethanol) and 1,2-Dioleoyl-sn-glycero-3-phospho-rac-(1-glycerol) (DOPG; Sigma Aldrich, 10 mM in Ethanol) and 0.5 volumes of Cholesterol (CHOL; Sigma Aldrich, 10 mM in Ethanol) and vortexed for 5 s. The mixture (Red/Green BODIPY® PC-A2/DOPC/DOPG/CHOL) was diluted 1:91.4 in activity assay buffer (50 mM Tris/HCl pH 8.5, 100 mM NaCl) using a small-orifice pipette tip under constant vortexing. In the following, this preparation will be referred to as the “substrate solution”.
In order to evaluate their inhibitory potential, compounds were dissolved at 10 mM concentration in DMSO and directly spotted into assay plates (Corning, Cat. No. 3576) using acoustic liquid transfer (Labcyte Echo 525). Each compound was spotted at increasing concentrations, ranging from 2 nM to 50 μM (concentration in the final assay volume). 50 μl of PLA2G16 enzyme solution (diluted in activity buffer, supplemented with 5 mM L-Glutathione; Sigma Aldrich) was pre-incubated with compounds for 4 min., followed by addition of 50 μl of substrate solution. Fluorescence was recorded immediately after substrate addition for a total time of 10 min. using a SpectraMax M5 multimode reader (Excitation wavelength: 480 nm, emission wavelength: 530 nm). The relative increase of fluorescence over time is referred to as the enzyme activity. Half-maximal inhibitory concentrations (IC50) were derived by non-linear regression analysis using the drc package in R (R Development. Core Team, 2005).

Row | SMILES | EC50 [1] [nM] | IC50 (PLA2G16) [nM]
1 | COc1cc(F)ccc1N(C=O)C(C)C(=O)C(=O)NCc1cccc(Cl)c1 (stereo not drawn) [FP 8, N-[(3-Chlorophenyl)methyl]-3-[N-(4-fluoro-2-methoxyphenyl)formamido]-2-oxobutanamide] | < 1000 | < 1000
2 | COc1ccccc1N(C=O)C(C)C(=O)C(=O)NC(C)(C)c1cccc(Cl)c1 (stereo not drawn) [FP 11, N-[2-(3-Chlorophenyl)propan-2-yl]-3-[N-(2-methoxyphenyl)formamido]-2-oxobutanamide] | < 1000 | < 1000
3 | CCC(C(=O)C(=O)NCc1cccc(Cl)c1)N(C=O)c1ccccc1OC (stereo not drawn) [FP 12, N-[(3-Chlorophenyl)methyl]-3-[N-(2-methoxyphenyl)formamido]-2-oxopentanamide] | 1000 to 10000 | < 1000
4 | COc1ccccc1N(C=O)C(CC(C)C)C(=O)C(=O)NCc1cccc(Cl)c1 (stereo not drawn) [FP 13, N-[(3-Chlorophenyl)methyl]-3-[N-(2-methoxyphenyl)formamido]-5-methyl-2-oxohexanamide] | < 1000 | < 1000
5 | CC(C)CNC(=O)C(=O)C(C)N(C=O)C1CCCCC1 (stereo not drawn) [FP 15, 3-(N-Cyclohexylformamido)-N-(2-methylpropyl)-2-oxobutanamide] | < 1000 | < 1000
6 | CC(C)CNC(=O)C(=O)C(C)N(C=O)CC1CC1 (stereo not drawn) [FP 16, 3-[N-(cyclopropylmethyl)formamido]-N-(2-methylpropyl)-2-oxobutanamide] | 1000 to 10000 | < 1000
7 | CC(C(=O)C(=O)NCc1cccc(Cl)c1)N(C=O)CC1CCCCC1 (stereo not drawn) [FP 18, N-[(3-Chlorophenyl)methyl]-3-[N-(cyclohexylmethyl)formamido]-2-oxobutanamide] | < 1000 | < 1000
8 | CC(C(=O)C(=O)NCc1cccc(Cl)c1)N(C=O)C1CCOCC1 (stereo not drawn) [FP 22, N-[(3-Chlorophenyl)methyl]-3-[N-(oxan-4-yl)formamido]-2-oxobutanamide] | 1000 to 10000 | < 1000
9 | CC(C(=O)C(=O)NCc1cccc(Cl)c1)N(C=O)CC(C)(C)C (stereo not drawn) [FP 23, N-[(3-Chlorophenyl)methyl]-3-[N-(2,2-dimethylpropyl)formamido]-2-oxobutanamide] | < 1000 | < 1000
10 | CC(C(=O)C(=O)NCc1cccc(Cl)c1)N(C=O)CC1CCOCC1 (stereo not drawn) [FP 24, N-[(3-Chlorophenyl)methyl]-3-{N[(oxan-4-yl)methyl]formamido}-2-oxobutanamide] | 1000 to 10000 | < 1000
11 | COc1ccccc1N(C=O)C(C)C(=O)C(=O)NCC1CCCCC1 (stereo not drawn) [FP 25, N-(Cyclohexylmethyl)-3-[N-(2-methoxyphenyl)formamido]-2-oxobutanamide] | < 1000 | < 1000
12 | CC(C(=O)C(=O)NC(C)(C)c1cccc(Cl)c1)N(C=O)C1CCCCC1 (stereo not drawn) [FP 27, N[2-(3-Chlorophenyl)propan-2-yl]-3-(N-cyclohexylformamido)-2-oxobutanamide] | < 1000 | < 1000
13 | COc1ccccc1N(C=O)C(C)C(=O)C(=O)NC(C)C (stereo not drawn) [FP 28, 3-[N-(2-Methoxyphenyl)formamido]-2-oxo-N-(propan-2-yl)butanamide] | 1000 to 10000 | < 1000
14 | CC(C)NC(=O)C(=O)C(C)N(C=O)CC(C)(C)C (stereo not drawn) [FP 29, 3-[N-(2,2-Dimethylpropyl)formamido]-2-oxo-N-(propan-2-yl)butanamide] | 1000 to 10000 | < 1000
15 | CC(C)CN(C=O)C(C(=O)C(=O)NCC1CC1)C(C)C (stereo not drawn) [FP 30, N-(Cyclopropylmethyl)-4-methyl-3-[N-(2-methylpropyl)formamido]-2-oxopentanamide] | 1000 to 10000 | < 1000
16 | CC(C)C(C(=O)C(=O)NCC1CC1)N(C=O)CC(C)(C)C (stereo not drawn) [FP 31, N-(Cyclopropylmethyl)-3-[N-(2,2-dimethylpropyl)formamido]-4-methyl-2-oxopentanamide] | 1000 to 10000 | < 1000
17 | CC(C)C(C(=O)C(=O)NCC1CC1)N(C=O)CC1CCOCC1 (stereo not drawn) [FP 34, N-(Cyclopropylmethyl)-4-methyl-3-{N-[(oxan-4-yl)methyl]formamido}-2-oxopentanamide] | 1000 to 10000 | < 1000
18 | COc1ccccc1N(C=O)C(C(=O)C(=O)NCc1cccc(Cl)c1)C(C)C (stereo not drawn) [FP 35, N-[(3-Chlorophenyl)methyl]-3-[N-(2-methoxyphenyl)formamido]-4-methyl-2-oxopentanamide] | 1000 to 10000 | < 1000
19 | CC(C)NC(=O)C(=O)C(C)N(C=O)C1CCCCC1 (stereo not drawn) [FP 36, 3-(N-Cyclohexylformamido)-2-oxo-N-(propan-2-yl)butanamide] | 1000 to 10000 | < 1000
20 | CC(C(=O)C(=O)NCC1CC1)N(C=O)Cc1ccccc1 (stereo not drawn) [FP 37, 3-(N-Benzylformamido)-N-(cyclopropyylmethyl)-2-oxobutanamide] | < 1000 | < 1000
21 | CC(C(=O)C(=O)NCC1CC1)N(C=O)CC1CCCCC1 (stereo not drawn) [FP 38, 3-[N-(Cyclohexylmethyl)formamido]-N-(cyclopropylmethyl)-2-oxobutanamide] | < 1000 | < 1000
22 | CC(C(=O)C(=O)NCC1CC1)N(C=O)CC1CCN(C(=O)OC(C)(C)C)CC1 (stereo not drawn) [FP 39, tert-Butyl 4-[(N-{1-[(cyclopropylmethyl)carbamoyl]-1-oxopropan-2-yl}formamido)methyl]piperidine-1-carboxylate] | > 10000 | 1000 to 10000
23 | CC(C(=O)C(=O)NCC1CC1)N(C=O)C1CCCCC1 (stereo not drawn) [FP 40, 3-(N-Cyclohexylformamido)-N-(cyclopropylmethyl)-2-oxobutanamide] | < 1000 | < 1000
24 | CC(C(=O)C(=O)NCC1CC1)N(C=O)CC(C)(C)C (stereo not drawn) [FP 41, N-(Cyclopropylmethyl)-3-[N-(2,2-dimethylpropyl)formamido]-2-oxobutanamide] | 1000 to 10000 | < 1000
